Experimental data published in patent US20090326008A1, “NF-kappa B Inhibitor” (priority 2006, published 2009).

Test system: NF-κB
Experiment: NF-kappaB reporter assay (pNF-kappaB-SEAP) in IL-1β-stimulated MKN-45 cells
Type: cell-based, human
Conditions: IL-1β 2 ng/mL for 6 hours, DMSO (0.05%) control = 1.00, triplicate
Procedure: pNF-kappaB-SEAP was obtained from Clonetech Laboratories Inc.
Cryopreserved MKN-45 cells (product of JCRB (Japanese Collection of Research Bioresources)) were thawed and cultured in a standard medium in an incubator (37° C., 5% CO2). Every three to five days, the cells were recovered by treatment with Trypsin-EDTA, then adequately diluted and subcultured. MKN-45 cells subcultured two or more times with a survival rate of 95% or more were used in each experiment.
The subcultured MKN-45 cells were harvested using Trypsin-EDTA solution, and the number of viable cells was counted. The cells were suspended in a standard medium to yield a 1.5×10^5 cells/mL suspension. A 24-well plate was seeded with 500 μL/well of the cell suspension, and the cells were cultured in an incubator (37° C., 5% CO2).
The day after seeding, transfection was performed according to the following protocol.
(4.1) Preparation of Plasmid Solution 4 μL of 0.1 μg/μL pNFkappaB-SEAP was placed into each well and diluted with 50 μL of OPTI-MEM I (product of Invitrogen Japan K.K.) by mixing by inversion.
1 μL of Lipofectamine 2000 reagent (product of Invitrogen) was placed into each well and diluted with 50 μL of OPTI-MEM I (product of Life Technologies Inc.) by mixing by inversion. The mixture was allowed to stand at room temperature for 5 to 10 minutes to prepare a Lipofectamine dilution.
The plasmid solution and the Lipofectamine dilution were mixed by inversion and allowed to stand at room temperature for 20 to 30 minutes to prepare a transfection mixture.
The culture medium was removed from the 24-well plate by suction. While care was taken not to dry the subcultured MKN-45 cells, the inner surface of the wells was washed with 1 mL/well of PBS. After the medium was replaced with 500 μL/well of OPTI-MEM I (product of Life Technologies Inc.), 100 μL/well of the transfection mixture was added, and the cells were cultured in a incubator (37° C., 5% CO2). After about 5 hours of incubation, the medium was replaced with a standard medium, and the cells were further cultured in a CO2 incubator (37° C., 5% CO2) until the following day.
On the following morning, the culture medium supernatant was removed by suction and replaced with 1 mL/well of the test compound solution or control solution diluted with a standard medium. The cells were cultured in a CO2 incubator (37° C., 5% CO2) for 1 hour. Each experiment was performed in triplicate.
200 ng/mL IL-1β was added in an amount of 10 μL/well (final concentration: 2 ng/mL), and the cells were cultured in a CO2 incubator (37° C., 5% CO2) for 6 hours.
A reporter assay was performed using Reporter Assay Kit-SEAP (product of Toyobo Co.) according to the manufacturer's protocol.
More specifically, 500 μL of the culture broth was transferred into a tube and centrifuged at 15,000 rpm for 5 minutes at 4° C. The supernatant was transferred into a 96-well white plate. The positive control included in the Reporter Assay Kit-SEAP, and a standard medium as a blank control were each added in an amount of 20 μL/well to the 96-well white plate. Further, an inhibitor for inhibiting the AP activity of the MKN-45 cells was added in an amount of 20 μL/well. After sealing the plate, the contents were mixed well. The plate was placed into a CO2 incubator (37° C., 5% CO2) and allowed to stand for 30 minutes. Subsequently, the plate was allowed to stand on ice for 1 minute, followed by addition of 160 μL/well of Lumi-Phos Plus (a chemiluminescent substrate, product of Lumigen Inc.). The plate was sealed again and placed in a light-shielded state into a CO2 incubator (37° C., 5% CO2). After the plate was allowed to stand for 15 to 30 minutes, luminescence was measured for about 5 to about 10 seconds using a luminometer.
The results of the reporter assay were expressed as Percent Control (or Inhibition), calculated according to the following formulae. The luminescence of each sample was calculated by subtracting the average of blank samples.

COc1ccc(CC2SC(=S)NC2=O)c2c1N(CCC(C)C)C(=O)CC2 (stereo not shown) [Test Compound 965]
NF-kappaB reporter (SEAP luminescence) IL-1b(+) mean, relative to control: 0.68
